Key:
hGALK1 [1] = target: T1, hGALK1 (Homo sapiens, UniProt P51570, E253A/K252A); experiment: Kinase-Glo luminescent hGALK1 activity assay; type: biochemical; set-up: Vmaxapp, substrate galactose, with ligand (+) / Kmapp, substrate galactose, with ligand (+): unit not given here; conditions: for mode of inhibition with respect to galactose: 0–250 μM galactose, best-fit model in GraphPad Prism; for Kmapp, substrate galactose, with ligand (+) / Vmaxapp, substrate galactose, with ligand (+): 35 µM ATP, maximum tested concentration: 1 mM T1, 15 mM fragment 3, 2 mM 11–13
T1 construct: A hGALK1 construct, encoding full-length protein harboring the surface entropy[41] mutations K252A:E253A; His6 (N); made in house; host or cells: E. coli BL21(DE3)
Experimental: hGALK1 activity in vitro was determined using the Kinase-Glo luminescent kinase assay (Promega), according to the manufacturer’s protocol. […] Following a 1-h RT incubation, 10 μL of Kinase-Glo Plus detection reagent was added (final assay volume: 20 μL/well), and after a further 20 minutes RT incubation, luminescence was detected using a Pherastar FSX plate reader (BMG Labtech) containing a luminescence optics module. […] All reactions were performed in technical triplicates for two different preparations of hGALK1.
Data were plotted using GraphPad Prism software; curve fitting was performed with a nonlinear least-squares regression fit to the mixed, competitive, noncompetitive, and uncompetitive inhibition models from the GraphPad Prism enzyme kinetics–inhibition equations and the best fit selected by comparison of Akaike’s Information Criterion (AICc) probability scores and extra sum-of-squares F test P values calculated by the software.

hGALK1 [2] = target: T1, hGALK1; experiment: Amplex Red fluorescence-based hGALK1 activity assay (coupled with galactose oxidase); type: biochemical; set-up: Vmaxapp, substrate ATP, with ligand (+) / Kmapp, substrate ATP, with ligand (+): unit not given here; conditions: for Kmapp, substrate ATP, with ligand (+) / Vmaxapp, substrate ATP, with ligand (+): 50 µM galactose, maximum tested concentration: 1 mM T1, 15 mM fragment 3, 2 mM 11–13
Source text: Consequently, to confirm the mode of inhibition of the spiro-benzoxazole inhibitors with respect to ATP, we adopted the Amplex Red fluorescence-based assay[33],[34] by coupling the hGALK1 reaction with D. dendroides galactose oxidase (GAO; EC 1.1.3.9) to measure the level of galactose remaining after being depleted as a substrate for hGALK1. In this method, hydrogen peroxide generated by the oxidation of galactose by GAO is used by horseradish peroxidase to convert the nonfluorescent substrate Amplex Red into its highly fluorescent product resorufin; therefore, the resultant fluorescent signal is inversely proportional to hGALK1 enzyme activity. We optimized several parameters of this assay to allow measurement of hGALK1 activity for the first time (Figure S3; Supplementary Results).
The Amplex Red assay reagent contained horseradish peroxidase (EC 1.11.1.7, 0.2 U/mL), its substrate Amplex Red (10-acetyl-3,7-dihydroxyphenoxazine, 100 μM), and galactose oxidase (EC 1.1.3.9, 4 U/mL). The assay buffer used was the same as in the Kinase-Glo assay. […] Amplex Red reagent was added at a 1:1 volume to the hGALK1 reaction after 1-h incubation at RT. Fluorescence emission was measured at 585 nm, with excitation at 570 nm, after a further incubation period of 40 minutes, using a Pherastar FSX plate reader with a FI 540 590 optics module. Reactions were performed in technical triplicates for two biological replicates, and data were plotted and fitted as described for the Kinase-Glo assay except that the reaction rate, defined as total galactose consumed over the 1-h hGALK1 reaction, was determined using the following equation, where Fluorreaction = mean value of measured fluorescence of each reaction and Fluor50 = measured fluorescence with no galactose (i.e., fluorescence of 50 μM galactose): [drawing 2]

T1 sequence (P51570 whole entry K252A/E253A, the tested form may be a part): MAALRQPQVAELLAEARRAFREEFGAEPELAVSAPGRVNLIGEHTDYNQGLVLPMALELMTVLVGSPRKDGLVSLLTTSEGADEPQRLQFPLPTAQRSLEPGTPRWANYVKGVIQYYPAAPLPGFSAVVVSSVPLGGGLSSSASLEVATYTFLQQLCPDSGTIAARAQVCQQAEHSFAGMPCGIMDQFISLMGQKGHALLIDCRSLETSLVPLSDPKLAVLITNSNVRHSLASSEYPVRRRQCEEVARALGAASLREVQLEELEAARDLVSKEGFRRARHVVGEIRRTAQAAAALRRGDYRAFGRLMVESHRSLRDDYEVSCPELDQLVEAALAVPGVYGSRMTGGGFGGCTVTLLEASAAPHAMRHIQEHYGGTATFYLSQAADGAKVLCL

SMILES	change in hGALK1 activity, strictly standardized mean difference (SSMD) (hGALK1 [1]; 5 mM fragment)	mode of inhibition with respect to galactose (hGALK1 [1]; 35 μM ATP)	Kmapp, substrate ATP, with ligand (+) (hGALK1 [2])	Vmaxapp, substrate ATP, with ligand (+) (hGALK1 [2])	Kmapp, substrate galactose, with ligand (+) (hGALK1 [1])	Vmaxapp, substrate galactose, with ligand (+) (hGALK1 [1])	further results
CS(=O)(=O)c1nccn1Cc1cscn1 [fragment 2]	< 0.5						
CCOC(=O)C1CCN(c2cnccn2)CC1 [fragment 1]	< 0.5						
Cc1ccc(C)c(OC(=O)c2ccncc2)c1 [fragment 7]	< 0.5						
O=C(Cc1ccc(Cl)cc1)Nc1ncccn1 [fragment 3]	2.79	mixed	32.1 ± 8.4	4.2 ± 0.3	184.2 ± 2.1	5.1 ± 0.4	decrease in Vmaxapp, ATP titration (hGALK1 [2]; fragment 0–15 mM, 50 μM galactose): 4 fold; reduction of hGALK1 activity (hGALK1 [1]; 5 mM fragment, single-point): 24 ± 1.6%; decrease in Vmaxapp, galactose titration (hGALK1 [1]; fragment 0–15 mM, 35 μM ATP): 5 fold; increase in Kmapp, galactose titration (hGALK1 [1]; fragment 0–15 mM, 35 μM ATP): 6 fold

More lines, main results first:

change in hGALK1 activity, strictly standardized mean difference (SSMD) (hGALK1 [1]; 5 mM fragment)	mode of inhibition with respect to galactose (hGALK1 [1]; 35 μM ATP)	Kmapp, substrate ATP, with ligand (+) (hGALK1 [2])	Vmaxapp, substrate ATP, with ligand (+) (hGALK1 [2])	Kmapp, substrate galactose, with ligand (+) (hGALK1 [1])	Vmaxapp, substrate galactose, with ligand (+) (hGALK1 [1])	SMILES	further results
	non-competitive					O=C1CCCC2=C1C1(CCCCC1)N=C(Nc1nc3ccccc3o1)N2 [T2, 2′-(benzo[d]oxazol-2-ylamino)-7′,8′-dihydro-1′H-spiro[cyclohexane-1,4′-quinazolin]-5′(6′H)-one, reference compound]	mode of inhibition with respect to ATP (hGALK1 [2]; 50 μM galactose, 0–250 μM ATP, best-fit model in GraphPad Prism): competitive; IC50 (hGALK1 [1]; 10 nM hGALK1, 100 μM galactose, 35 μM ATP, read-out: IC50): 17 µM
		63.5 ± 2.6	27.9 ± 1.5	32.9 ± 1.0	4.1 ± 0.5	O=C1CCCC2=C1C1(CCCC1)N=C(Nc1nc3ccccc3o1)N2 [T1, 2′-(benzo[d]oxazol-2-ylamino)-7′,8′-dihydro-1′H-spiro[cyclopentane-1,4′-quinazolin]-5′(6′H)-one, reference compound]	
